Assay results taken from ChEMBL document CHEMBL1201862, “PubChem BioAssay data set” (2004).
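Five compound concentrations were applied to cells in 96-well plates for 48 hours; endpoints were derived by simple linear interpolation of the resulting dose-response curve. The concentration for 50% growth inhibition is given as GI50.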 Calls of active or inactive are those of the source. Cut-off read from the data, not from the text of the source: active = GI50 up to about 1.1 µM and inactive = higher.

How the values were obtained:
Experiment in all cases: NCI tumour cell line growth inhibition, 48 h
DMS-114 = tested on: DMS-114
HOP-18 = tested on: HOP-18
OVCAR-3 = tested on: OVCAR-3
XF498 = tested on: XF498
K562 = tested on: K562
SF-295 = tested on: SF-295
NCI-H23 = tested on: NCI-H23
OVCAR-4 = tested on: OVCAR-4
KM12 = tested on: KM12
HL-60 = tested on: HL-60
OVCAR-8 = tested on: OVCAR-8
DLD-1 = tested on: DLD-1
HCT-15 = tested on: HCT-15
A498 = tested on: A498
SK-MEL-5 = tested on: SK-MEL-5
RXF 631 = tested on: RXF 631
COLO 205 = tested on: COLO 205
DMS-273 = tested on: DMS-273
M14 = tested on: M14
SF-539 = tested on: SF-539
RXF 393 = tested on: RXF 393
U-251 = tested on: U-251
MOLT-4 = tested on: MOLT-4
NCI-H460 = tested on: NCI-H460
SR = tested on: SR
EKVX = tested on: EKVX
SNB-78 = tested on: SNB-78
HT-29 = tested on: HT-29
TK-10 = tested on: TK-10
M19-MEL = tested on: M19-MEL
HCC 2998 = tested on: HCC 2998
NCI-H226 = tested on: NCI-H226
RPMI-8226 = tested on: RPMI-8226
OVCAR-5 = tested on: OVCAR-5
IGROV-1 = tested on: IGROV-1
SF-268 = tested on: SF-268
LXFL 529 = tested on: LXFL 529
786-0 = tested on: 786-0
SK-MEL-28 = tested on: SK-MEL-28
CCRF-CEM = tested on: CCRF-CEM
SW-620 = tested on: SW-620
Malme-3M = tested on: Malme-3M
A549 = tested on: A549
SN12C = tested on: SN12C
ACHN = tested on: ACHN
LOX IMVI = tested on: LOX IMVI
SK-OV-3 = tested on: SK-OV-3
UO-31 = tested on: UO-31
SNB-75 = tested on: SNB-75
UACC-62 = tested on: UACC-62
SNB-19 = tested on: SNB-19
SK-MEL-2 = tested on: SK-MEL-2
DU-145 = tested on: DU-145
HOP-62 = tested on: HOP-62
HCT-116 = tested on: HCT-116
T47D = tested on: T47D
PC-3 = tested on: PC-3
CAKI-1 = tested on: CAKI-1
NCI-H522 = tested on: NCI-H522
HOP-92 = tested on: HOP-92
MCF7 = tested on: MCF7
BT-549 = tested on: BT-549
MDA-N = tested on: MDA-N
UACC-257 = tested on: UACC-257
MDA-MB-435 = tested on: MDA-MB-435
KM-20L2 = tested on: KM-20L2

For `Cn1c2c(c3ccccc31)C1CCCCCCC1C1C(=O)OC(=O)C21` (stereo unspecified), the GI50 (DMS-114) was 29.1 µM (inactive), the GI50 (HOP-18) was > 100 µM (inactive) and the GI50 (OVCAR-3) was 19.5 µM (inactive). For the same molecule, the GI50 (XF498) was 43.6 µM (inactive), the GI50 (K562) was 31.3 µM (inactive) and the GI50 (SF-295) was 35.2 µM (inactive). For the same molecule, the GI50 (NCI-H23) was 69.7 µM (inactive), the GI50 (OVCAR-4) was 53.8 µM (inactive) and the GI50 (KM12) was 38.9 µM (inactive). The GI50 (HL-60) was 30.8 µM (inactive), the GI50 (OVCAR-8) was 31.9 µM (inactive) and the GI50 (DLD-1) was 33.6 µM (inactive). For the same molecule, the GI50 (HCT-15) was 30.2 µM, the GI50 (A498) was 72.1 µM (inactive) and the GI50 (SK-MEL-5) was 35.2 µM (inactive). For the same molecule, the GI50 (RXF 631) was 33.3 µM (inactive), the GI50 (COLO 205) was 40.6 µM (inactive) and the GI50 (DMS-273) was 20 µM (inactive). For the same molecule, the GI50 (M14) was 88.1 µM (inactive), the GI50 (SF-539) was 39.8 µM (inactive) and the GI50 (RXF 393) was 21.2 µM (inactive). The GI50 (U-251) was 37.9 µM (inactive), the GI50 (MOLT-4) was 24.8 µM (inactive) and the GI50 (NCI-H460) was 36.8 µM (inactive). For the same molecule, the GI50 (SR) was 29 µM (inactive), the GI50 (EKVX) was 45.5 µM (inactive) and the GI50 (SNB-78) was > 100 µM (inactive). For the same molecule, the GI50 (HT-29) was 30.1 µM (inactive), the GI50 (TK-10) was > 100 µM (inactive) and the GI50 (M19-MEL) was 37.4 µM (inactive). For the same molecule, the GI50 (HCC 2998) was 22.4 µM (inactive), the GI50 (NCI-H226) was 63 µM (inactive) and the GI50 (RPMI-8226) was 23.1 µM (inactive). The GI50 (OVCAR-5) was > 100 µM (inactive), the GI50 (IGROV-1) was 27.4 µM (inactive) and the GI50 (SF-268) was 45.2 µM (inactive). For the same molecule, the GI50 (LXFL 529) was 39.7 µM (inactive), the GI50 (786-0) was > 100 µM (inactive) and the GI50 (SK-MEL-28) was 54.1 µM (inactive). The GI50 (CCRF-CEM) was 24.3 µM (inactive), the GI50 (SW-620) was 32.4 µM (inactive) and the GI50 (Malme-3M) was 11.9 µM (inactive). The GI50 (A549) was 36.9 µM (inactive), the GI50 (SN12C) was 39.5 µM (inactive) and the GI50 (ACHN) was 56 µM (inactive). For the same molecule, the GI50 (LOX IMVI) was 22.8 µM (inactive), the GI50 (SK-OV-3) was 32.7 µM (inactive) and the GI50 (UO-31) was > 100 µM (inactive). For the same molecule, the GI50 (SNB-75) was 30.3 µM (inactive), the GI50 (UACC-62) was 59.6 µM (inactive) and the GI50 (SNB-19) was 44.8 µM (inactive).

For `CCOC(=O)C(=Cc1ccc(Oc2ccccc2)cc1)C(=O)OCC`, the GI50 (SK-MEL-2) was 1.85 µM (inactive), the GI50 (DMS-114) was 3.07 µM (inactive) and the GI50 (HOP-18) was 13.8 µM (inactive). The GI50 (OVCAR-3) was 6.38 µM (inactive), the GI50 (XF498) was 4.32 µM (inactive) and the GI50 (DU-145) was 11.6 µM (inactive). For the same molecule, the GI50 (K562) was 1.87 µM (inactive), the GI50 (SF-295) was 5.13 µM (inactive) and the GI50 (HOP-62) was 3.28 µM (inactive). The GI50 (NCI-H23) was 2.58 µM (inactive), the GI50 (OVCAR-4) was 7.59 µM (inactive) and the GI50 (KM12) was 5.98 µM (inactive). The GI50 (HL-60) was 1.73 µM (inactive), the GI50 (OVCAR-8) was 2.19 µM (inactive) and the GI50 (DLD-1) was 2.14 µM (inactive). The GI50 (HCT-15) was 2.44 µM, the GI50 (HCT-116) was 2.31 µM (inactive) and the GI50 (A498) was 15.3 µM (inactive). For the same molecule, the GI50 (SK-MEL-5) was 1.98 µM (inactive), the GI50 (T47D) was 5.85 µM (inactive) and the GI50 (RXF 631) was 3.03 µM (inactive). For the same molecule, the GI50 (PC-3) was 2.16 µM (inactive), the GI50 (CAKI-1) was 14.1 µM (inactive) and the GI50 (COLO 205) was 4.06 µM (inactive). The GI50 (DMS-273) was 1.69 µM (inactive), the GI50 (M14) was 3.82 µM (inactive) and the GI50 (SF-539) was 3.84 µM (inactive). For the same molecule, the GI50 (RXF 393) was 1.89 µM (inactive), the GI50 (U-251) was 3.35 µM (inactive) and the GI50 (MOLT-4) was 1.92 µM (inactive). The GI50 (NCI-H460) was 18.2 µM (inactive), the GI50 (SR) was 2.52 µM (inactive) and the GI50 (NCI-H522) was 4.22 µM (inactive). The GI50 (HOP-92) was 4.03 µM (inactive), the GI50 (EKVX) was 15.4 µM (inactive) and the GI50 (MCF7) was 4.09 µM (inactive). For the same molecule, the GI50 (SNB-78) was 5.7 µM (inactive), the GI50 (BT-549) was 1.84 µM (inactive) and the GI50 (HT-29) was 3.18 µM (inactive). The GI50 (MDA-N) was 4.41 µM (inactive), the GI50 (TK-10) was 7.74 µM (inactive) and the GI50 (HCC 2998) was 10.6 µM (inactive). For the same molecule, the GI50 (UACC-257) was 2.42 µM (inactive), the GI50 (NCI-H226) was 3.17 µM (inactive) and the GI50 (MDA-MB-435) was 2.58 µM (inactive). The GI50 (RPMI-8226) was 2.79 µM (inactive), the GI50 (OVCAR-5) was 4.44 µM (inactive) and the GI50 (IGROV-1) was 6.81 µM (inactive). The GI50 (SF-268) was 3.32 µM (inactive), the GI50 (LXFL 529) was 2.29 µM (inactive) and the GI50 (KM-20L2) was 4.65 µM (inactive). The GI50 (786-0) was 1.85 µM (inactive), the GI50 (SK-MEL-28) was 3.56 µM (inactive) and the GI50 (CCRF-CEM) was 2.03 µM (inactive). The GI50 (SW-620) was 2.22 µM (inactive), the GI50 (Malme-3M) was 2.56 µM (inactive) and the GI50 (A549) was 8.45 µM (inactive). The GI50 (SN12C) was 2.27 µM (inactive), the GI50 (ACHN) was 6.3 µM (inactive) and the GI50 (LOX IMVI) was 1.47 µM (inactive). The GI50 (SK-OV-3) was 7.05 µM (inactive), the GI50 (UO-31) was 4.35 µM (inactive) and the GI50 (SNB-75) was 2.66 µM (inactive). The GI50 (UACC-62) was 1.63 µM (inactive) and the GI50 (SNB-19) was 5.73 µM (inactive).
